Key:
[1] = biological target: T1, Recombinant human p65 protein (r-p65) (Homo sapiens, UniProt Q04206); assay: Plate binding ELISA of GA/PGA with r-p65 (KD by method of Friguet)
T1 construct: purchased Ori-Gene Technologies Inc., Rockville, Md; TP320780
Description: We used similar method to determine direct binding kinetics of GA hexapeptides with human r-p65. […] Absorbance at 650 nm was measured with a mixing time of 30 s using BIORAD microplate reader. […] The dissociation constant of the interaction between the GA or the control peptide and r-p65 was determined by the method of Friguet et al., as described. A fraction of the bound r-p65 (x) and the ratio of bound r-p65 to the free GA or control peptide (y) was determined by the equations: x=(A0−A)/(A0), where A0 is the absorbance of r-p65anti-p65 complex in the absence of bound GA or control peptide and y=(A0−A)/(a0−i0)×(A0−A)/(A0), where a0 is the total concentration of GA or control peptide and i0 is the total concentration of r-p65.
Kinetics of PGA:-p65 interaction: The binding kinetics of top five PGA with full length human r-p65 was assessed as described. Plate bound GILZ-P or PGA at increasing concentrations was probed with r-p65-DDK (Ori-Gene Technologies Inc., Rockville, Md.) at constant concentration and detected with anti-DDK.

[2] = system: U373 cells; assay type: cell-based, human; conditions: Example 9, PGA synthesized with TAT; read-out: IC50 of LDH release extrapolated from regression analysis
Description: (§1) Lactate dehydrogenase (LDH) assay: To detect direct GA-induced cell lysis we performed LDH release assays (Roche Molecular Diagnostics). […] Approximately 5×10^4 U373 cells/well were cultured in 96-well plates in the presence of increasing concentrations of individual GA or control peptide from 0.5 μM to 500 μM. Cells treated with 2% triton-X 100 (Sigma Aldrich, St. Louis, Mo.) for 10 minutes served as positive control. Untreated cells served as controls for spontaneous LDH-release. Specific LDH-release was calculated according to the following formula: LDH-release %=100*(GA or control peptide treated cells—untreated cells)/(positive control-untreated cells). The IC50 values were extrapolated by logarithmic estimation. The LD50 in mg/kg was predicted using the formula, Log (LD50)=0.506×(log IC50)+0.475.
Effects of PGA on membrane integrity and apoptosis: The top five PGA were covalently synthesized with the cell penetrating TAT (transcriptional transactivation) peptide to facilitate intracellular delivery (Genescript, N.J.). Membrane integrity of U373 microglial cells exposed to increasing concentration of each PGA from 0.5 μm to 500 μM was assessed by the leakage of intracellular lactate dehydrogenase (LDH) into culture medium (Roche, Ind.).

[3] = system: U373 cells; assay: Annexin-V and propidium iodide apoptosis by flow cytometry; assay type: cell-based, human; conditions: score 1/0
Description: Detection apoptosis by flow cytometry: To further assess cell cytotoxicity, the apoptotic effects of individual GA or control peptide was evaluated by the Annexin-V and propidium iodide (PI) dual staining method (Annexin-V-Fluos staining kit, Roche Diagnostics, Mannheim, Germany). As opposed to apoptotic cells, necrotic cells with ruptured cell membrane take up PI, the DNA binding dye. Thus, cells which take up both fluorochromes are a mixture of apoptotic and necrotic cells, whereas cells that exclude PI but bind Annexin V are (early) apoptotic cells. U373 cells cultured with varying concentrations of individual GA or control peptide (0.5 μM to 50 μM) for 24 hours were centrifuged and suspended in 100 μl of Annexin V/PI labelling solution (20 μl each of Annexin-V-Fluos labelling reagent and PI in 1 ml of binding buffer) for 15 min at room temperature. After washing the cells were resuspended in PBS:1% paraformaldehyde and analyzed using a FACScan flow cytometer (BD Biosciences, San Jose, Calif.).

[4] = LD50 predicted from in-vitro IC50 by regression (Speilmann method); conditions: score 1/0
Description: as §1, with “IC50)+0.475. […]” for “IC50)+0.475.”

[5] = system: primary human fetal brain cells (HFB); assay: CTG viability of primary human fetal brain cultures with or without Aβ1-42; assay type: cell-based; conditions: PGA at IC50 concentration
Description: Functional assays in human primary mixed brain cultures (HFB). Primary cultures of mixed HFB were prepared from the brain parenchyma of aborted fetuses (80-100 days gestational age). The tissues were obtained from the Birth Defects Research Laboratory (BDRL) at the University of Washington, Seattle with approval from the Indiana University Institutional Review Board (IRB). The IRB determined that the use of anonymous human biological materials received from this depository is not considered as human subjects research (supplementary document, s1). The NIH funded BDRL tissue distribution program operates separately in full compliance with all relevant state and federal laws and regulations with donors providing written informed consent.
Fetal brain materials (10-20 g) were shipped overnight in chilled Hibernate-E medium (Invitrogen) supplemented with B27 (Invitrogen), GlutaMAX (Invitrogen) and antibiotic-antimycotic solution (Cellgro). HFB were prepared and cultured as described. Briefly, cells were cultured in Neurobasal medium (Invitrogen) without phenol red supplemented with 1×B27, […] GlutaMAX, 1×antibiotic cocktail, 5 ng/mL recombinant fibroblast growth factor 2 (bFGF) (Invitrogen), and 2 μL/mL Normocin (InVivoGen, San Diego, Calif., USA). Cells were counted and seeded onto poly-D-lysine (Sigma-Aldrich) coated 24-well plates (Corning, Lowell, Mass., USA) at 1.5×10^5 cells per well and maintained at 37° C. in a 5% CO2 incubator. Half media changes were performed every 4th day of culture and morphology was monitored via phase contrast microscopy. Culture medium was removed from cells on day 17 (DIV17) and replaced with Neurobasal medium with B27. […] Cells and conditioned media were harvested and stored for further analysis. Relative ATP concentration was measured using the CTG kit (Promega). Data is presented as ΔRLU=RLU of Aβ1-42 exposed cells-RLU unexposed cells. Conditioned media collected were assessed for specific cytokines using the OptEIA kits (BD Biosciences). Nuclear and cytoplasmic fractions were extracted using the CelLytic™ NuCLEAR™ Extraction Kit (Sigma) following manufacturer's protocol. Five microgram of nuclear extracts was incubated in a 96-well plate coated with oligonucleotides containing the NF-κβ consensus nucleotide sequence (5′-[…]-3′) (SEQ ID NO: 30). The activated NF-κβ bound to DNA was detected by anti-p65 antibody followed by a peroxidase coupled secondary antibody and substrate using the TransAM kit protocol (Active Motif). Nuclear extracts of Raji cells was used as the positive control.
Select PGA protects against Aβ1-42 induced toxicity, prevents p65 activation and cytokine response in human fetal brain (HFB) cells. […] Viability in terms of relative luminescent Units (RLU) was quantified using a Glowmax luminometer (Promega, Wis.). Data are presented as ARLU=RLU of Aβ1-42 exposed cells-RLU of unexposed cells. […] The mean RLU of vehicle treated HFB varied between 7352.75+/−1265.2 and 16157.5+/−4950. Average RLU of cultures exposed to Aβ1-42 varied between 6067.25+/−903.05 and 11574.25+/−4139.3 in different experiments. […] The culture supernatants were assessed for cytokines by ELISA (R&D Systems, Minn.). […] Primary HFB cultured similarly and harvested at the end of 4 hours was assessed for nuclear p65 using TransAM kit for NF-κB p65 (Active Motif, Calif.).

[6] = system: Aβ1-42 exposed HFB cells; assay: Cytokines in culture medium of Aβ1-42 exposed HFB; assay type: cell-based, human; conditions: PGA at IC50 concentration
[7] = system: SK-N-SH cells; assay: MTT viability with dexamethasone; assay type: cell-based, human; conditions: 24 h
Description: Preliminary results: The expression of GILZ in human neuroblastoma cells was evaluated. […] After resting, the cells were cultured with increasing concentrations of dexamethasone (Dex: 0-10 μM) for 24 h and viability was determined by the MTT assay by measuring the absorbance of the intracellular formazon resulting from the reduction of the yellow tetrazolium MTT by the cell metabolic activity. Absorbance of vehicle treated cells was taken as 100% viable. GILZ expression was measured in protein extracts from separate SK-N-SH cultures by Western blot analysis using GILZ mAb [Santa Cruz Biotechnology, Dallas, Tex.]. Total RNA isolated from similar SK-N-SH cultures was reverse transcribed and the GILZ mRNA was amplified using the SYBR green qPCR mix (SA Biosciences, Fredrick, Md.) on the ABI Prism 7000 system (Applied Biosystem, Calif.).

[8] = dissociation constant, KD, method of Friguet et al.

T1 sequence (Q04206 whole entry): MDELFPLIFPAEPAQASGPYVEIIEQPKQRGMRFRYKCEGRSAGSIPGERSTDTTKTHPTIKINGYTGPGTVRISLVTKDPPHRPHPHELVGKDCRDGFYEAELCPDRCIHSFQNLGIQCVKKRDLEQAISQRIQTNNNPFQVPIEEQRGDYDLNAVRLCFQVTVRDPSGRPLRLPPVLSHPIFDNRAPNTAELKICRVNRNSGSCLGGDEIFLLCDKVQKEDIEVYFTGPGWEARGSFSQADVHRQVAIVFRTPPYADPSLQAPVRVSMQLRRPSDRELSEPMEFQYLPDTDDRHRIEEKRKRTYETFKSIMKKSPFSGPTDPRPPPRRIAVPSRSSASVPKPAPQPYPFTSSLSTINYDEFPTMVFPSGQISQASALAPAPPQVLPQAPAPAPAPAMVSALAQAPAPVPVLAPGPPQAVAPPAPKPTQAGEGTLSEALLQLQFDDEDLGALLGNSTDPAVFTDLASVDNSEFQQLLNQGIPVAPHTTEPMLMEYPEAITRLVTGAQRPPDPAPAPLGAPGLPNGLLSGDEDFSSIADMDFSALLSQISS

Compound	Kd ([1]; KD (uM), score 1/0) [µM]	Kd [1, 8] [µM]	IC50 [2] [µM]	% apoptosis at LD50 [3]	LD50 (mM) [4]	tolerance of HFB cultures (ΔRLU, CTG) [5]	viability of Aβ1-42 exposed HFB cells ([5]; Aβ1-42 10 μM, 24 hours)	AIL-1p concentration in culture supernatant (not shown) [6]	AIL-6 concentration in culture supernatant [6]	toxicity (MTT viability) ([7]; 1 μM)	reduction of viability ([7]; 10 μM) [%]
Ac-APKPYQPRG-NH2 [PGA-1]	> 3	4.28	2.27	0 (>25)	0 (<100)	significant toxicity					
Ac-EPAPYQPEG-NH2 [PGA-3]	> 3	3.27	0.98	1 (<25)	1 (>100)	well tolerated	significantly higher				
Ac-EPAPEQPDG-NH2 [PGA-5]	> 3	3.4	2	0 (>25)	1 (>100)	significant toxicity		significantly lower	significantly lower		
C[C@@H]1C[C@H]2[C@@H]3CCC4=CC(=O)C=C[C@]4(C)[C@@]3(F)[C@@H](O)C[C@]2(C)[C@@]1(O)C(=O)CO [DEX, dexamethasone]										not toxic	25

From US11478526B2, “Methods of reducing neuroinflammation or toxicity induced by amyloid beta (abeta) using glucocorticoid induced leucine zipper (GILZ) analog peptides” (INDIANA UNIVERSITY RESEARCH AND TECHNOLOGY CORPORATION, priority 2016, dated 2022)
